In paper PMC2776710 (Basic research in cardiology, 2009):

Target: mitochondrial respiratory complex II (succinate-ubiquinone oxidoreductase) (Rattus norvegicus, UniProt P21913+Q641Z9+Q6PCT8)
Sequence (P21913 31-282): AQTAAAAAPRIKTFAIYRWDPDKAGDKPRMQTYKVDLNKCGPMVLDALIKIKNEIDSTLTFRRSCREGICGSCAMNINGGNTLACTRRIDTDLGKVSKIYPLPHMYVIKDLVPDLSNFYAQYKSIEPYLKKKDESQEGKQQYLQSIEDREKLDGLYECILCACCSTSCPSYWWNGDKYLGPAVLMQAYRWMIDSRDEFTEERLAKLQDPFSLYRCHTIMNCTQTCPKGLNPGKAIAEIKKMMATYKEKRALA
Sequence (Q641Z9 30-169): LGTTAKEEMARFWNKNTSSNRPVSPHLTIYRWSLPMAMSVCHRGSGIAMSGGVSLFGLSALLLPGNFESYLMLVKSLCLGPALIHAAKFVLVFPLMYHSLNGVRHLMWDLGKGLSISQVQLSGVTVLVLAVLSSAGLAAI
Sequence (Q6PCT8 57-159): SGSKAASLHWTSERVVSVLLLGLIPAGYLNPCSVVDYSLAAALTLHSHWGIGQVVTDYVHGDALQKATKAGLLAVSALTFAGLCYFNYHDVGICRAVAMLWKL
Sequence (Q920L2 35-656 partner): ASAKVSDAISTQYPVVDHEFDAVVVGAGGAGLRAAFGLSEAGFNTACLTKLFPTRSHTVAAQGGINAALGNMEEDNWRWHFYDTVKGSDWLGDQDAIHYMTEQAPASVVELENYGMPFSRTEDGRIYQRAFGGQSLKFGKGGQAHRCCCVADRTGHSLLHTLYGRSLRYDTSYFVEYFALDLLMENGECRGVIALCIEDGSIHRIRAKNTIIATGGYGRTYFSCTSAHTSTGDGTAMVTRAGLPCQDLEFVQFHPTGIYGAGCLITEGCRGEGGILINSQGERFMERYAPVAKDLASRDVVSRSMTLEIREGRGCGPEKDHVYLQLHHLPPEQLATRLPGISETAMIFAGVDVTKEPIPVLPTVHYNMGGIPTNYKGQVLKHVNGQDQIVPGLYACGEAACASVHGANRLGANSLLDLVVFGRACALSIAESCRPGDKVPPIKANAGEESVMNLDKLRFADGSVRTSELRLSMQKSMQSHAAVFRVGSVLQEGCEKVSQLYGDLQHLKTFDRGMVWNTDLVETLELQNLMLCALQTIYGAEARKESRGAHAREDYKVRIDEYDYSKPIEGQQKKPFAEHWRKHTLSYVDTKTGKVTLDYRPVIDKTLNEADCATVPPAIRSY

COc1[nH]c(=O)c(C(=O)[C@@H](C)C[C@H](C)[C@@H](Cl)CCl)c(O)c1OC [AA5, atpenin A5]
IC50: 8.3 nM
